Test results reported in patent US9328083B2, “2-aminated methylene or 2-esterified methylene tanshinone derivatives, and preparation method and application thereof” (HANGZHOU BENSHENG PHARMACEUTICAL CO., LTD., priority 2011, dated 2016).

Columns and labels:
[1] = test system: RPMI8226 (multiple myeloma); test: MTT growth inhibition of multiple myeloma cells, 72 h; format: cell-based, human; details: Homo sapiens, RPMI 8226, 72 h; for IC50: read-out: IC50; for IC90: read-out: IC90
Method: Myeloma cell lines: RPMI8226 (multiple myeloma), purchased from Fuxiang Bio-tech Co. Ltd., Shanghai, China.
(§1) The standard sample of tanshinone I (TA) and the 2-aminated methylene or 2-esterified methylene tanshinone I derivatives of the present invention are sufficiently dissolved with dimethylsulfoxide to produce a stock solution of 10 mg/mL, which is refrigerated at 4° C. and stored in dark, and is diluted with a cell culture medium to the desired concentration prior to experimentation.
(§2) Obtaining 6000 well-growing myeloma cells as above and inoculating them into wells of a 96-well cell culture plate. The culture medium is the 1640 cell culture medium containing 10% fetal bovine serum. After adding the 2-aminated methylene or 2-esterified methylene tanshinone I derivatives of different concentrations and mixing uniformly, placing the plate in a carbon dioxide cell incubator (5% CO2) at 37° C. and incubated for 72 hours. Then the viable cell concentration is determined by MTT method.

[2] = test system: K562/adr (drug-resistant, chronic myeloid leukemia, CML); test: MTT growth inhibition of leukemia cells, 72 h; format: cell-based, human; details: Homo sapiens, K562/Adr; for IC50: read-out: IC50; for IC90: read-out: IC90
Source text: (§3) Leukemia cell lines: leukemia cell lines: K562/adr (drug-resistant, chronic myeloid leukemia, CML), NB4 (acute promyelocytic leukemia, AML), Kasumi-1 (acute myeloid leukemia M2 type, AML-M2), and Jurkat (acute lymphoblastic leukemia, ALL), all of which are donated by Cancer Research Institute of Zhejiang University, China; and H9 (acute lymphoblastic leukemia, ALL), which is purchased from China Center for Type Culture Collection (CCTCC).
as §1
as §2, with “leukemia” for “myeloma”, “cells” for “cells as above”, “RPMI-1640” for “1640”, “adding on the second day” for “adding”

[3] = test system: Jurkat (acute lymphoblastic leukemia, ALL); test: MTT growth inhibition of leukemia cells, 72 h; format: cell-based, human; details: Homo sapiens, 72 h; for IC50: read-out: IC50; for IC90: read-out: IC90
Source text: as §3, §1
as §2, with “leukemia” for “myeloma”, “cells” for “cells as above”, “RPMI-1640” for “1640”, “adding on the second day” for “adding”

[4] = test system: Kasumi-1 (acute myeloid leukemia M2 type, AML-M2); test: MTT growth inhibition of leukemia cells, 72 h; format: cell-based, human; details: Homo sapiens, Kasumi-1, 72 h; for IC50: read-out: IC50; for IC90: read-out: IC90
Source text: as §3, §1
as §2, with “leukemia” for “myeloma”, “cells” for “cells as above”, “RPMI-1640” for “1640”, “adding on the second day” for “adding”

[5] = test system: NB4 (acute promyelocytic leukemia, AML); test: MTT growth inhibition of leukemia cells, 72 h; format: cell-based, human; details: Homo sapiens, NB4, 72 h; for IC50: read-out: IC50; for IC90: read-out: IC90
Source text: as §3, §1
as §2, with “leukemia” for “myeloma”, “cells” for “cells as above”, “RPMI-1640” for “1640”, “adding on the second day” for “adding”

[6] = test system: H9 (acute lymphoblastic leukemia, ALL); test: MTT growth inhibition of leukemia cells, 72 h; format: cell-based, human; details: Homo sapiens, H9, 72 h; for IC50: read-out: IC50; for IC90: read-out: IC90
Source text: as §3, §1
as §2, with “leukemia” for “myeloma”, “cells” for “cells as above”, “RPMI-1640” for “1640”, “adding on the second day” for “adding”

[7] = test system: A549 (human lung cancer); test: MTT growth inhibition of human solid tumor cells, 72 h; format: cell-based; details: Homo sapiens, A549, 72 h; for IC50: read-out: IC50; for IC90: read-out: IC90
Method: (§4) Hep-2 (laryngeal carcinoma), A549 (human lung cancer), CaES-17 (esophageal cancer cell), PC-3 (prostate cancer), CNE (nasopharyngeal carcinoma cell), and SK-OV-3 (ovarian cancer cell), all of which are purchased from China Center For Type Culture Collection; RKO (human colon adenocarcinoma cell), MGC 803 (human gastric cancer cell), MG63 (osteosarcoma) and U87 MG (malignant glioma cell), all of which are purchased from Fuxiang Bio-tech Co. Ltd., Shanghai, China; PANC-1 (pancreatic cancer), Hep G2 (human liver cancer cell), Becap37 (human breast cancer cell) and Hela (human cervical cancer cell), all of which are donated by Cancer Research Institute of Zhejiang University, China.
as §1
(§5) Obtaining 4000 well-growing human solid tumor cells and inoculating them into wells of a 96-well cell culture plate. The culture medium is DMEM High Glucose cell culture medium containing 10% fetal bovine serum. The plate is placed in a carbon dioxide cell incubator (5% CO2) at 37° C. and incubated for 24 hours. After adding the 2-aminated methylene or 2-esterified methylene tanshinone I derivatives of different concentrations and mixing uniformly, the plate is placed in a carbon dioxide cell incubator (5% CO2) at 37° C. and incubated for 72 hours. Then the viable cell concentration is determined by the MTT method.

[8] = test system: MGC 803 (human gastric cancer cell); test: as above; format: cell-based; details: Homo sapiens, MGC-803, 72 h; for IC50: read-out: IC50; for IC90: read-out: IC90
Method: as §4, §1, §5

[9] = test system: PANC-1 (pancreatic cancer); test: as above; format: cell-based; details: Homo sapiens, PANC-1, 72 h; for IC50: read-out: IC50; for IC90: read-out: IC90
Method: as §4, §1, §5

[10] = test system: SK-OV-3 (ovarian cancer cell); test: as above; format: cell-based; details: Homo sapiens, SK-OV-3, 72 h; for IC50: read-out: IC50; for IC90: read-out: IC90
Method: as §4, §1, §5

[11] = test system: Hep-2 (laryngeal carcinoma); test: as above; format: cell-based; details: Homo sapiens, HEp-2, 72 h; for IC50: read-out: IC50; for IC90: read-out: IC90
Method: as §4, §1, §5

[12] = test system: PC-3 (prostate cancer); test: as above; format: cell-based; details: Homo sapiens, PC-3, 72 h; for IC50: read-out: IC50; for IC90: read-out: IC90
Method: as §4, §1, §5

[13] = test system: U87 MG (malignant glioma cell); test: as above; format: cell-based; details: Homo sapiens, U-87 MG, U87-MG, 72 h; for IC50: read-out: IC50; for IC90: read-out: IC90
Method: as §4, §1, §5

[14] = test system: Hep G2 (human liver cancer cell); test: as above; format: cell-based; details: Homo sapiens, HepG2, Hep G2, 72 h; for IC50: read-out: IC50; for IC90: read-out: IC90
Method: as §4, §1, §5

[15] = test system: MG63 (osteosarcoma); test: as above; format: cell-based; details: Homo sapiens, MG-63, 72 h; for IC50: read-out: IC50; for IC90: read-out: IC90
Method: as §4, §1, §5

[16] = test system: Hela (human cervical cancer cell); test: as above; format: cell-based; details: Homo sapiens, HeLa, 72 h; for IC50: read-out: IC50; for IC90: read-out: IC90
Method: as §4, §1, §5

[17] = test system: CNE (nasopharyngeal carcinoma cell); test: as above; format: cell-based; details: Homo sapiens; for IC50: read-out: IC50; for IC90: read-out: IC90
Method: as §4, §1, §5

[18] = test system: RKO (human colon adenocarcinoma cell); test: as above; format: cell-based; details: Homo sapiens; for IC50: read-out: IC50; for IC90: read-out: IC90
Method: as §4, §1, §5

[19] = test system: Becap37 (human breast cancer cell); test: as above; format: cell-based; details: Homo sapiens, Becap-37, 72 h; for IC50: read-out: IC50; for IC90: read-out: IC90
Method: as §4, §1, §5

[20] = test system: CaES-17 (esophageal cancer cell); test: as above; format: cell-based; details: Homo sapiens, CaEs17, CaEs-17, 72 h; for IC50: read-out: IC50; for IC90: read-out: IC90
Method: as §4, §1, §5

| IC50 [1] | IC90 [1] | IC50 [2] | IC90 [2] | IC50 [3] | IC90 [3] | IC50 [4] | IC90 [4] | IC50 [5] | IC90 [5] | IC50 [6] | IC90 [6] | IC50 [7] | IC90 [7] | IC50 [8] | IC90 [8] | IC50 [9] | IC90 [9] | IC50 [10] | IC90 [10] | Compound | also measured |
| --- | --- | --- | --- | --- | --- | --- | --- | --- | --- | --- | --- | --- | --- | --- | --- | --- | --- | --- | --- | --- | --- |
| 3.86 µg/mL | 16 µg/mL | 11.2 µg/mL | > 16 µg/mL | 4.79 µg/mL | > 16 µg/mL | 5.03 µg/mL | > 16 µg/mL | 0.99 µg/mL | 7 µg/mL | 6.25 µg/mL | 15.9 µg/mL | 8.9 µg/mL | > 16 µg/mL | 8.91 µg/mL | > 16 µg/mL | 4.24 µg/mL | > 16 µg/mL | > 16 µg/mL | > 16 µg/mL | CC[N+](C)(Cc1ccc(F)c(Cl)c1)Cc1oc2c(c1C)C(=O)C(=O)c1c-2ccc2c(C)cccc12 (centres unmarked) [BS-TA-50] | IC50 [11]: 13.7 µg/mL; IC90 [11]: > 16 µg/mL; IC50 [12]: 10.7 µg/mL; IC90 [12]: > 16 µg/mL; IC50 [13]: 4.67 µg/mL; IC90 [13]: > 16 µg/mL; IC50 [14]: > 16 µg/mL; IC90 [14]: > 16 µg/mL; IC50 [15]: 1.67 µg/mL; IC90 [15]: > 16 µg/mL; IC50 [16]: 7.78 µg/mL; IC90 [16]: > 16 µg/mL; IC50 [17]: 3.87 µg/mL; IC90 [17]: > 16 µg/mL; IC50 [18]: 2.5 µg/mL; IC90 [18]: > 16 µg/mL; IC50 [19]: 8.1 µg/mL; IC90 [19]: > 16 µg/mL; IC50 [20]: 8.45 µg/mL; IC90 [20]: > 16 µg/mL |
| 2 µg/mL | 7.64 µg/mL | 1.36 µg/mL | 5.12 µg/mL | 1.28 µg/mL | 3.99 µg/mL | 1.61 µg/mL | 3.86 µg/mL | 0.9 µg/mL | 2.98 µg/mL | 1.4 µg/mL | 4 µg/mL | 3.78 µg/mL | 9.78 µg/mL | 2.9 µg/mL | 5.4 µg/mL | 1.74 µg/mL | 3.58 µg/mL | 9.78 µg/mL | 22.7 µg/mL | Cc1c(C[N+](C)(CCO)Cc2ccc(F)c(Cl)c2)oc2c1C(=O)C(=O)c1c-2ccc2c(C)cccc12 (centres unmarked) [BS-TA-60] | IC50 [11]: 1.79 µg/mL; IC90 [11]: 7.41 µg/mL; IC50 [12]: 5.03 µg/mL; IC90 [12]: 10.8 µg/mL; IC50 [13]: 0.36 µg/mL; IC90 [13]: 18.8 µg/mL; IC50 [14]: 2.5 µg/mL; IC90 [14]: 5.97 µg/mL; IC50 [15]: 1.24 µg/mL; IC90 [15]: 5.23 µg/mL; IC50 [16]: 3.32 µg/mL; IC90 [16]: 7.35 µg/mL; IC50 [17]: 3.2 µg/mL; IC90 [17]: 7.2 µg/mL; IC50 [18]: 0.52 µg/mL; IC90 [18]: 1.88 µg/mL; IC50 [19]: 1.88 µg/mL; IC90 [19]: 3.67 µg/mL; IC50 [20]: 3.58 µg/mL; IC90 [20]: 7.74 µg/mL |
